Assay results: patent US20230255873A1, “COSMETIC OR DERMATOLOGICAL PEPTIDE-BASED TREATMENT OF THE SKIN AND ITS INTEGUMENTS” (Sederma, priority 2020, published 2023)
The star is where a group is joined. Palmitoyl = CCCCCCCCCCCCCCCC(=O)*

What was measured:
[1] = test system: P. acnes; test: P. acnes growth curve (time to OD600 nm = 0.5); type: cell-based, Propionibacterium acnes; details: for Time (in hour) to reach OD600 nm = 0.5: vehicle 42-44 h
Description: 1—P. acnes growth curve (same protocol as described above at point 1.4)
P. acnes is thawed and grown over 3 days in M20 media. Then, optical density at 600 nm (OD600) is measured and 2×10^6 CFU*/mL are plated in well plates. P. acnes is then treated with 6 ppm, 9 ppm and 12 ppm of peptides. To follow bacterial cell multiplication, OD600 is measured regularly for about 1 week. […] Statistical evaluations are performed on results using a Student t test. Two independent experiments are performed (N=2).

[2] = test system: normal human keratinocytes (NHK); test: Involucrin quantification by immunohistochemistry in NHK; type: cell-based; details: 5 ppm
Description: Normal human keratinocytes (NHK) are grown on wells plate. When subconfluence was reached, cells received various concentrations of the peptides. After few days, evaluation of differentiation is compared to solvent control under microscope and cells are fixed to allow the study of involucrin by immunohistochemistry.
Involucrin is an early marker of keratinocytes differentiation. The below table show the percentage of variation of involucrin vs. Control.

[3] = target: extracellular lipases of P. acnes (Propionibacterium acnes); test: cell-based or functional assay

| Molecule | Delay in P. acnes growth versus vehicle ([1]; 6 ppm) | Time (in hour) to reach OD600 nm = 0.5 ([1]; 6 ppm) | Delay in P. acnes growth versus vehicle ([1]; 9 ppm) | Time (in hour) to reach OD600 nm = 0.5 ([1]; 9 ppm) | Delay in P. acnes growth versus vehicle ([1]; 12 ppm) | Time (in hour) to reach OD600 nm = 0.5 ([1]; 12 ppm) | Involucrin (% var vs. Control) [2] | Reduction in lipase activity of P. acnes (4-MUO fluorescent probe), variation (%) vs solvent control, 6 ppm of peptide [3] | Reduction in lipase activity of P. acnes (4-MUO fluorescent probe), variation (%) vs solvent control, 9 ppm of peptide [3] | Reduction in lipase activity of P. acnes (4-MUO fluorescent probe), variation (%) vs solvent control, 12 ppm of peptide [3] |
| --- | --- | --- | --- | --- | --- | --- | --- | --- | --- | --- |
| Pal-GKTSKS-OH | +2 h | 45.6 h | +12 h | 56.2 h | +26 h | 70.2 h |  |  |  |  |
| Pal-KTSKSA-OH (Palmitoyl-KTSKSA-OH; SMILES CCCCCCCCCCCCCCCC(=O)N[C@@H](CCCCN)C(=O)N[C@H](C(=O)N[C@@H](CO)C(=O)N[C@@H](CCCCN)C(=O)N[C@@H](CO)C(=O)N[C@@H](C)C(=O)O)[C@@H](C)O) [other preferred peptide of the invention, palmitoyl hexapeptide KTSKSA] | +5 h | 47.3 h | +15 h | 57.9 h | +18 h | 60.5 h | +152%; p < 0.01 |  |  |  |
| Pal-KTSKT-OH (Palmitoyl-KTSKT-OH; SMILES CCCCCCCCCCCCCCCC(=O)N[C@@H](CCCCN)C(=O)N[C@H](C(=O)N[C@@H](CO)C(=O)N[C@@H](CCCCN)C(=O)N[C@H](C(=O)O)[C@@H](C)O)[C@@H](C)O) [other preferred peptide of the invention, palmitoyl pentapeptide KTSKT] | +5 h | 47.7 h | +13 h | 55.2 h | +43 h | 85.1 h | +125%; p < 0.01 |  |  |  |
| Palmitoyl-KTSKS-OH (SMILES CCCCCCCCCCCCCCCC(=O)N[C@@H](CCCCN)C(=O)N[C@H](C(=O)N[C@@H](CO)C(=O)N[C@@H](CCCCN)C(=O)N[C@@H](CO)C(=O)O)[C@@H](C)O) [Pal-KTSKS-OH] |  |  |  |  |  |  |  | -22% | -64% | -88% |
